# In US20260207519A1, “ISOLATED TARGETED DELIVERY SYSTEM FOR THE TREATMENT OF OVARIAN CANCER” (CELLIS SP. Z O.O. [LTD.], priority 2022, published 2026):
# Test system: A2780_luc tumors
# Assay: 3rd in vivo study: A2780_luc orthotopic xenograft model
# Parameters: species or system female Balb/c nude mice
# Conditions: vehicle 13 days; Kaplan-Meier, log-rank test
# Method: FIG. 14: The Kaplan-Meier survival curve of female nude mice implanted […] with A2780_luc tumors. N=8 for both groups initially. Statistical analysis was carried out using log-rank (Mantel-Cox) test.
# All in vivo studies were performed using female Balb/c nude mice at age 5-8 weeks. Animals were imaged using an In Vivo Imaging System (IVIS, Newton 7.0, Vilber).
# A2780_luc or A2780-cis_luc cells were orthotopically implanted into both ovaries of mice. 5 days after implant mice were imaged using IVIS and those with most similar bioluminescent intensity values were assigned to the following treatment groups: […]
structure (smiles),measurement,value
"N.N.[Cl][Pt][Cl] [cisplatin, Cisplatin]",median survival,14.5 days
